Results reported in patent publication EP1830856B1, “PREVENTING PATHOLOGICAL INCREASES IN THE RATE OF NERVE CELL SUICIDE IN IMMATURE NERVOUS SYSTEMS” (Olney, John W., priority 2004, dated 2006).

Assays:
[1] = test system: apoptosis induced by anti-convulsants such as phenytoin and carbamazepine; settings: tissue culture model; only in a dose range well above the plasma levels considered therapeutic in humans; Nonaka et al., 1998; cited from earlier work
ERK = settings: infant mice; within less than 30 minutes after ethanol administration
immature brains = settings: Ikonomidou et al., 2000; cited from earlier work
AKT = settings: infant mice; within 30 minutes after administration of ethanol
[2] = test system: neuroapoptosis triggered by a cocktail of anesthetic drugs; settings: immature rats undergoing anesthesia; subcutaneous; Beals et al, 2003; cited from earlier work

For `[Li]` [Lithium], the antiapoptotic action [1] is listed as “act as an antiapoptotic agent”.
In the case of `CCO` [ethanol], the “activated isoforms of ERK” value (ERK) is given as “rapid decrease”, the “neuroapoptosis responses in immature brains” value (immature brains) is given as “triggers especially severe neuroapoptosis responses” and the “activated isoform of AKT” value (AKT) is given as “marked suppression”.
For `COc1ccc2[nH]cc(CCNC(C)=O)c2c1` [melatonin], the “protection against pathological neuroapoptosis (effects of pretreatment)” value [2] is listed as “only modest”.
